According to patent publication US4486411A, “Beta-lactamase inhibiting 6-beta-sulfonyloxypenicillanic acid derivatives” (Pfizer Inc., priority 1981, dated 1984):
“And” between values parts separate entries of the source, which are not always exact repeats. Equal values may be shown once. Read-outs that look alike come from different tables or passages of the source.

Experiments:
Proteus morgani = test: MIC, brain heart infusion agar dilution; assay type: cell-based; conditions: for MIC with Ampicillin: 1:1 mixture with ampicillin; for MIC with Cefazolin / Response with Cefazolin: 1:1 mixture with cefazolin; for MIC: 18 h, alone, Table II gives two separate tests
Experimental: (§1) The procedure which is followed is the one recommended by the International Collaborative Study on Antibiotic Sensitivity Testing [Ericcson and Sherris, Acta. Pathologica et Microbiologia Scandinav, Supp. 217, Sections A and B: 64-68 (1971)], and employs brain heart infusion (BHI) agar and the inocula replicating device. Overnight growth tubes are diluted 100 fold for use as the standard inoculum (20,000-10,000 cells in approximately 0.002 ml. are placed on the agar surface; 20 ml. of BHI agar/dish). Twelve 2 fold dilutions of the test compound are employed, with initial concentration of the test drug being 200 mcg./ml. Single colonies are disregarded when reading plates after 18 hrs. at 37° C. The susceptibility (MIC) of the test organism is accepted as the lowest concentration of compound capable of producing complete inhibition of growth as judged by the naked eye. The manner in which the said compounds of the formula I increase the effectiveness of a beta-lactam antibiotic can be appreciated by reference to experiments in which the MIC of a given antibiotic alone, and a compound of the formula I alone, are measured. These MIC's are then compared with the MIC values obtained with a combination of the given antibiotic and the compound of the formula I wherein R^1 is hydrogen. […] The MIC values of combinations are measured using the method described by Barry and Sabath in "Manual of Clinical Microbiology", edited by Lenette, Spaulding and Truant, 2nd Edition, 1974, American Society for Microbiology.
(§2) Results of experiments illustrating that compounds of the formula II enhance the effectiveness of various beta-lactam antibiotics are reported in Tables I and II. […] It is obvious that the combination of compounds of the formula II with beta-lactam antibiotics will show synergistic activity against other bacterial strains, including some freshly isolated in the clinics. Determination of this activity is a matter of routine application of this type of testing.

Escherichia coli 2* = test: MIC, brain heart infusion agar dilution; assay type: cell-based; conditions: for MIC with Cefazolin: 1:1 mixture with cefazolin; for MIC: Escherichia coli, 18 h, read-out: MIC Alone
Experimental: as §1, §2

Serratia marcescens = test: MIC, brain heart infusion agar dilution; assay type: cell-based; conditions: for MIC: Serratia marcescens, 18 h, alone, Table II gives two separate tests
Experimental: as §1, §2

Pseudomonas aeruginosa = test: MIC, brain heart infusion agar dilution; assay type: cell-based; conditions: for MIC with Ampicillin: 1:1 mixture with ampicillin; for MIC with Cefazolin: 1:1 mixture with cefazolin; for MIC: Pseudomonas aeruginosa, 18 h, alone, Table II gives two separate tests
Experimental: as §1, §2

Staphylococcus aureus 5 = test: MIC, brain heart infusion agar dilution; assay type: cell-based; conditions: for MIC with Ampicillin: 1:1 mixture with ampicillin; for MIC: 18 hrs. at 37° C., Table II gives two separate tests
Experimental: as §1, §2

Klebsiella pneumonia = test: MIC, brain heart infusion agar dilution; assay type: cell-based; conditions: for MIC with Ampicillin / Response with Ampicillin: 1:1 mixture with ampicillin; for MIC with Cefazolin / Response with Cefazolin: 1:1 mixture with cefazolin; for MIC: Klebsiella pneumoniae, 18 h, alone, Table II gives two separate tests
Experimental: as §1, §2

Enterobacter cloacae = test: MIC, brain heart infusion agar dilution; assay type: cell-based; conditions: for MIC with Ampicillin / Response with Ampicillin: 1:1 mixture with ampicillin; for MIC: Enterobacter cloacae, 18 h, alone, Table II gives two separate tests
Experimental: as §1, §2

Escherichia coli 129* = test: MIC, brain heart infusion agar dilution; assay type: cell-based; conditions: for MIC with Ampicillin: 1:1 mixture with ampicillin; for MIC: Escherichia coli, 18 h, read-out: MIC Alone
Experimental: as §1, §2

[1] = tested on: Staphylococcus aureus 400*; test: MIC, brain heart infusion agar dilution; assay type: cell-based; conditions: resistant variant
Experimental: as §1, §2

Escherichia coli 266 = test: MIC, brain heart infusion agar dilution; assay type: cell-based; conditions: for MIC: Escherichia coli, 266, 18 h, alone, Table II gives two separate tests
Experimental: as §1, §2

[2] = tested on: Escherichia coli 51A129 beta-lactamase; test: Inhibition of cell free beta-lactamase (beta-lactam hydrolysis); assay type: biochemical; conditions: Ampicillin 33 μM, pH 6.5, 37° C.
Experimental: (§3) The compounds of the present invention are also evaluated in vitro by their ability to inhibit the hydrolysis of certain beta-lactam antibiotics by beta-lactamase enzymes. The hydrolysis of ampicillin and penicillin G was determined by the microiodometric method of Novick [Biochem. J. 83, 236 (1962)].
(§4) Cephaloridine hydrolysis was measured by following the decrease in ultraviolet absorbance at 255 nm [O'Callaghan et al., Antimicrob. Agents Chemother. 1968, pp. 57-63 (1969)]. Conditions for both assays were idential: 0.5 M potassium phosphate, pH 6.5 and 37° C. Reactions were initiated by the addition of the cell-free beta-lactamase, except in the case of preincubation experiments in which the inhibitor and enzyme were incubated together in the assay mixture for 10 minutes before initiation of the reaction by addition of substrate. With the cell-free extracts of Staphylococcus aureus, Escherichia coli, Klebsiella pneumoniae and Pseudomonas aeruginosa, the substrate was ampicillin at 33 micro M (13 microg./ml.). Typical specific activities of the beta-lactamase preparations were, respectively, 6,019, 88,970, 260 and 76 micromol/hr. per mg. of protein.
(§5) Cell-free extracts were prepared by sonic treatment (using three 30-s bursts at 4° C. except for S. aureus, which was broken with a French press) of cultures grown in brain heart infusion on a rotary shaker incubator. For the S. aureus, P. aeruginosa, and E. cloacae strains, de novo synthesis of beta-lactamase was induced by growing a log-phase culture in the presence of a sublethal concentration of penicillin G at 100, 1,000, and 300 microg./ml, respectively, for 2.5 hr.

[3] = target: Enterobacter cloacae 67B009 beta-lactamase (Enterobacter cloacae, UniProt P05364); test: as above; assay type: biochemical; conditions: pH 6.5, 37° C.; for inhibition at 66 µM: inhibitor 66 μM; for inhibition at 16.5 µM: inhibitor 16.5 μM
Sequence of Enterobacter cloacae 67B009 beta-lactamase (P05364 21-381): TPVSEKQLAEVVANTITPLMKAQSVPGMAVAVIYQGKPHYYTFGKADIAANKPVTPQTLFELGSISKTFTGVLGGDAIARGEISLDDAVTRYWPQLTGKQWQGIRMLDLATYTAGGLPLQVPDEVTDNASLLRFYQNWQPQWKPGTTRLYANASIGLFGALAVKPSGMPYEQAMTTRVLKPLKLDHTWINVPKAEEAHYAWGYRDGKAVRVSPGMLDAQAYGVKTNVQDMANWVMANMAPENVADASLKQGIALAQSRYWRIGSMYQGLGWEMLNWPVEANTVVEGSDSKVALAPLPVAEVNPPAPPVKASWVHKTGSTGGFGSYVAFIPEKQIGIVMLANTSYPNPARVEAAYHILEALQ
Experimental: as §3, §4, §5

[4] = tested on: Klebsiella pneumoniae 53A129 beta-lactamase; test: as above; assay type: biochemical; conditions: Ampicillin 33 μM, pH 6.5, 37° C.
Experimental: as §3, §4, §5

[5] = target: T1, Staphylococcus aureus 01A400 beta-lactamase (Staphylococcus aureus, UniProt P00807); test: as above; assay type: biochemical; conditions: pH 6.5, 37° C.; for % Inhibition Beta-Lactam Hydrolysis: listed as R = C6 H5, n = 0
T1 construct: Cell-free extracts were prepared by sonic treatment; endogenous in cells; host or cells: Staphylococcus aureus 01A400, penicillin G-induced culture, cell-free extract (French press)
T1 sequence (P00807 25-281): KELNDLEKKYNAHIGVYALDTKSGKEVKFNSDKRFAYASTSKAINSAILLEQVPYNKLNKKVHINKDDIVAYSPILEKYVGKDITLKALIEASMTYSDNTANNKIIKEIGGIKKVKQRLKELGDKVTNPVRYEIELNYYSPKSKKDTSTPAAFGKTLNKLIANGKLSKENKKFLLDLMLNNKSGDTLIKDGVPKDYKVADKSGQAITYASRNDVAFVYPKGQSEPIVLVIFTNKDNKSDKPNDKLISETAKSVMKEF
Experimental: as §3, §4, §5

[6] = target: T2, Pseudomonas aeruginosa 52A104 beta-lactamase (Pseudomonas aeruginosa, UniProt P24735); test: as above; assay type: biochemical; conditions: pH 6.5, 37° C.
T2 construct: cell-free sonicate of penicillin G-induced culture
T2 sequence (P24735 27-397): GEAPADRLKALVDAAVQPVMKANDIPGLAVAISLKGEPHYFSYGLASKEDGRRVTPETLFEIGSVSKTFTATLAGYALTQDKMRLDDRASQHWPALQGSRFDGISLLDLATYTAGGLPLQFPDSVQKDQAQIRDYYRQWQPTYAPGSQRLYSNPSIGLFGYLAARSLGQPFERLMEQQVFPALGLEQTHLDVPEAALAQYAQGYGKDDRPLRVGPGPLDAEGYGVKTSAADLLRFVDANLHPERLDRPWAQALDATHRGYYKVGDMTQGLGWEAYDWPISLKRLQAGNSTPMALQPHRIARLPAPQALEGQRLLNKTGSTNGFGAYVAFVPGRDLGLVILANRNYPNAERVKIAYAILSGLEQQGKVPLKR
Experimental: as §3, §4, §5

[7] = 1:1 mixture with ampicillin, resistant variant
[8] = Staphylococcus aureus, 5, alone, read-out: MIC Alone
[9] = 1:1 mixture with cefazolin, resistant variant
[10] = pH 6.5, Ampicillin 33 μM, inhibitor 66 μM

Structure (SMILES): CC1(C)S[C@@H]2[C@H](OS(C)(=O)=O)C(=O)N2[C@H]1C(=O)O [Sodium Methanesulfonyloxypenicillanate, Sodium 6-beta-(Methanesulfonyloxy)penicillanate]
- MIC with Ampicillin (Proteus morgani): 1.56 µg/mL
- MIC with Cefazolin (Proteus morgani): 25 µg/mL
- Response with Cefazolin (Proteus morgani): Synergy
- MIC (Proteus morgani): > 200 µg/mL
- MIC with Ampicillin (Escherichia coli 2*; [7]): 100 µg/mL
- Response with Ampicillin (Escherichia coli 2*; [7]): Additive
- MIC with Cefazolin (Escherichia coli 2*; resistant variant): 6.25 µg/mL
- MIC (Escherichia coli 2*): > 200 µg/mL
- MIC with Ampicillin (Serratia marcescens; 1:1 mixture with ampicillin): 25 µg/mL
- Response with Ampicillin (Serratia marcescens; 1:1 mixture with ampicillin): Antagonism
- MIC with Cefazolin (Serratia marcescens; 1:1 mixture with cefazolin): 100 µg/mL
- Response with Cefazolin (Serratia marcescens; 1:1 mixture with cefazolin): Synergy
- MIC (Serratia marcescens): > 200 µg/mL
- MIC with Ampicillin (Pseudomonas aeruginosa): > 100 µg/mL
- MIC with Cefazolin (Pseudomonas aeruginosa): > 100 µg/mL
- MIC (Pseudomonas aeruginosa): > 200 µg/mL
- MIC with Ampicillin (Staphylococcus aureus 5): ≤ 0.2 µg/mL
- MIC (Staphylococcus aureus 5; [8]): 12.5 µg/mL
- MIC with Ampicillin (Klebsiella pneumonia): 100 µg/mL
- Response with Ampicillin (Klebsiella pneumonia): Antagonism
- MIC with Cefazolin (Klebsiella pneumonia): 1.56 µg/mL
- Response with Cefazolin (Klebsiella pneumonia): No effect
- MIC (Klebsiella pneumonia): > 200 µg/mL
- MIC with Ampicillin (Enterobacter cloacae): 100 µg/mL
- Response with Ampicillin (Enterobacter cloacae): Synergy
- MIC with Cefazolin (Enterobacter cloacae; 1:1 mixture with cefazolin): > 100 µg/mL
- MIC (Enterobacter cloacae): > 200 µg/mL
- MIC with Ampicillin (Escherichia coli 129*; resistant variant): > 100 µg/mL
- MIC with Cefazolin (Escherichia coli 129*; [9]): 50 µg/mL
- Response with Cefazolin (Escherichia coli 129*; [9]): Antagonism
- MIC (Escherichia coli 129*): > 200 µg/mL
- MIC with Ampicillin ([1]; 1:1 mixture with ampicillin): 3.12 µg/mL
- Response with Ampicillin ([1]; 1:1 mixture with ampicillin): Additive
- MIC with Cefazolin ([1]; 1:1 mixture with cefazolin): ≥ 0.2 µg/mL
- Response with Cefazolin ([1]; 1:1 mixture with cefazolin): Synergy
- MIC ([1]; Staphylococcus aureus, 18 h, read-out: MIC Alone, alone, Table II gives two separate tests): 6.25 µg/mL
- MIC with Ampicillin (Escherichia coli 266; 1:1 mixture with ampicillin): 3.12 µg/mL
- Response with Ampicillin (Escherichia coli 266; 1:1 mixture with ampicillin): Antagonism
- MIC (Escherichia coli 266): > 200 µg/mL
- % Inhibition Beta-Lactam Hydrolysis ([2]; inhibitor 66 μM): 4.4%
- inhibition at 66 µM ([3]; pH 6.5, Penicillin G 33 μM): 66.7%
- % Inhibition Beta-Lactam Hydrolysis ([4]; inhibitor 16.5 μM): 0%
- inhibition at 16.5 µM ([5]; pH 6.5, Ampicillin 33 μM, inhibitor 16.5 μM): 100%
- inhibition at 66 µM [5, 10]: 100%

Structure (SMILES): CC1(C)S[C@@H]2[C@H](OS(=O)(=O)Cc3ccccc3)C(=O)N2[C@H]1C(=O)O [Sodium 6-Beta-(Alpha-Toluenesulfonyloxy)penicillanate]
- MIC with Ampicillin (Proteus morgani): 3.12 µg/mL
- MIC with Cefazolin (Proteus morgani): 50 µg/mL
- Response with Cefazolin (Proteus morgani): Synergy
- MIC (Proteus morgani): > 200 µg/mL
- MIC with Ampicillin (Escherichia coli 2*; [7]): > 100 µg/mL
- MIC with Cefazolin (Escherichia coli 2*; resistant variant): 12.5 µg/mL and 6.25 µg/mL
- MIC (Escherichia coli 2*): > 200 µg/mL
- MIC with Cefazolin (Serratia marcescens; 1:1 mixture with cefazolin): > 100 µg/mL
- MIC (Serratia marcescens): > 200 µg/mL
- MIC with Ampicillin (Pseudomonas aeruginosa): > 100 µg/mL
- MIC with Cefazolin (Pseudomonas aeruginosa): > 100 µg/mL
- MIC (Pseudomonas aeruginosa): > 200 µg/mL
- MIC with Ampicillin (Staphylococcus aureus 5): ≤ 0.2 µg/mL
- MIC (Staphylococcus aureus 5; Staphylococcus aureus, 5, 18 h, read-out: MIC Alone, alone): 6.25 µg/mL
- MIC (Staphylococcus aureus 5; [8]): 100 µg/mL
- MIC with Ampicillin (Klebsiella pneumonia): > 100 µg/mL
- Response with Ampicillin (Klebsiella pneumonia): Antagonism
- MIC with Cefazolin (Klebsiella pneumonia): 0.78 µg/mL
- Response with Cefazolin (Klebsiella pneumonia): Additive
- MIC (Klebsiella pneumonia): > 200 µg/mL
- MIC with Ampicillin (Enterobacter cloacae): 100 µg/mL
- Response with Ampicillin (Enterobacter cloacae): Synergy
- MIC with Cefazolin (Enterobacter cloacae; 1:1 mixture with cefazolin): 100 µg/mL
- Response with Cefazolin (Enterobacter cloacae; 1:1 mixture with cefazolin): Synergy
- MIC (Enterobacter cloacae): > 200 µg/mL
- MIC with Ampicillin (Escherichia coli 129*; resistant variant): > 100 µg/mL
- MIC with Cefazolin (Escherichia coli 129*; [9]): 100 µg/mL and 50 µg/mL
- MIC (Escherichia coli 129*): > 200 µg/mL
- Response with Ampicillin ([1]; 1:1 mixture with ampicillin): Additive
- MIC with Ampicillin (Escherichia coli 266; 1:1 mixture with ampicillin): 3.12 µg/mL and 1.56 µg/mL
- MIC (Escherichia coli 266): > 200 µg/mL
- % Inhibition Beta-Lactam Hydrolysis ([2]; inhibitor 16.5 μM): 14.0%
- % Inhibition Beta-Lactam Hydrolysis ([2]; inhibitor 66 μM): 15.8%
- inhibition at 16.5 µM ([3]; pH 6.5, Cephalexin 33 μM): 100%
- inhibition at 16.5 µM ([3]; pH 6.5, Cephaloridine 4 μM): 100%
- inhibition at 4 µM ([3]; pH 6.5, Cephaloridine 33 μM, inhibitor 4 μM): 93.7%
- inhibition at 16.5 µM ([3]; pH 6.5, Cephaloridine 33 μM): 98.3%
- inhibition at 16.5 µM ([3]; pH 6.5, Penicillin G 33 μM): 96%
- inhibition at 66 µM ([3]; pH 6.5, Penicillin G 33 μM): 96%
- inhibition at 16.5 µM ([6]; Cephaloridine 16.5 μM, inhibitor 16.5 μM): 92.6%
- inhibition at 66 µM ([6]; Penicillin G 33 μM, inhibitor 66 μM): 100%
- % Inhibition Beta-Lactam Hydrolysis ([4]; inhibitor 16.5 μM): 3.0%
- % Inhibition Beta-Lactam Hydrolysis ([4]; inhibitor 66 μM): 0%
- % Inhibition Beta-Lactam Hydrolysis ([5]; Ampicillin 33 μM, inhibitor 16.5 μM): 40.3% and 78% and 63.3%
- % Inhibition Beta-Lactam Hydrolysis ([5]; Ampicillin 33 μM, inhibitor 66 μM): 91.4% and 91%
- inhibition at 66 µM [5, 10]: 85%
- inhibition at 66 µM ([5]; pH 6.5, Preincubation experiment (10 minutes), Ampicillin 33 μM, inhibitor 66 μM): 87.2%

Structure (SMILES): CC1(C)[C@H](C(=O)O)N2C(=O)[C@@H](OS(=O)(=O)Cc3ccccc3)[C@H]2S1(=O)=O [R = C6 H5, n = 2, Sodium 6-beta-(alpha-Toluene-sulfonyloxy)penicillanate Sulfone]
- inhibition at 66 µM ([3]; pH 6.5, Penicillin G 33 μM): 0%
- inhibition at 66 µM [5, 10]: 36.2%
